Measurements from US11123355B2, “Antiviral benzyl-amine phosphodiamide compounds” (Merck Sharp & Dohme Corp., priority 2016, dated 2021).
Where two headings read alike, the source gives them in different places.

Columns and labels:
HIV-1 (H9/IIB strain) = assay: Multiple Round HIV-1 Infection Assay (Viking Assay) in MT4-GFP cells; type: cell-based; settings: inhibition of reproductive ratio R0
Outline: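 MT-4 cells with tat/rev-dependent GFP reporter infected overnight with virus at MOI ~0.01, then incubated in RPMI with 10% or 50% normal human serum with 10-point 3-fold dilutions (typically 8.4 μM–0.42 nM final). Green cells counted at ~48 and ~72 h to give R0; IC50 from 4-parameter fit of R0 inhibition.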

[1] = Prodrug Stability Assay in Bio-Relevant Media (FaSSIF with Pancreatin); type: in vitro ADME; settings: 0.5 mg/mL Pancreatin in FaSSIF, 37° C.; HPLC peak area of prodrug at 5 h divided by that at 0 h
Experimental: Prodrug Stability Assay in Bio-Relevant Media
The following assay was employed to evaluate the stability of the prodrugs in simulated gastrointestinal tract conditions. Preparation of fasted state simulated intestinal fluid (FaSSIF) using Phares SIF Powder was carried out according to protocols from Phare Drug Delivery AG (Baselland, Switzerland). For sample preparation, 10 μL stock solutions (10 mM) of prodrug substance in DMSO was added to 990 μL of 0.5 mg/mL Pancreatin solution (Fisher CAS #8049-47-6) in FaSSIF. Two samples were prepared for each compound. If the sample was a clear solution, it was directly analyzed by HPLC. If the sample was not clear, the sample was diluted with 100% MeCN, maintained at 37° C. and observed 5 h later. If the sample was clear, HPLC analysis was directly performed. If the sample was still not clear, the sample was diluted with 100% ACN and assayed by HPLC. All the samples were vortexed for 3 min and observed before injection. For the diluted samples, the area is multiplied by a dilution factor when the data is analyzed. The analysis was carried out with an Agilent 1100 series HPLC with autosampler. The column was a Poroshell 120 EC-C18, 4.6×50 mm, 2.7 μm. The flow rate was 1.8 mL/min, and the injection volume was 5 or 10 μL. UV detection was in the range 210-400 nm. The mobile phase consisted of solvent A (water plus 10 mM tetrabutylammonium bromide) and solvent B (acetonitrile) with a gradient of: 90% solvent A at 0 min, changing to 95% solvent B over 6 min, maintaining for 1.5 min, then reverting to 90% solvent A over 1.6 min. The HPLC peak area of the prodrug at 5 h was divided by the HPLC peak area of the prodrug at 0 h, to generate the % claimed parent ratio, which is summarized in Table 2 for gastrointestinal (GI) Tract stability.

[2] = Pharmacokinetic Studies in Dogs - In Vivo Dog PK; set-up: species or system beagle dogs; settings: dog PBMCs at 24 h following a 10 mg/kg P.O. dose of the prodrug
Experimental: Pharmacokinetic Studies in Dogs—In Vivo Dog PK
Prodrugs were administered to beagle dogs through intravenous (IV) and oral (P.O.) administrations in a non-crossover manner. The IV dose was prepared in 20% hydroxypropyl β-cyclodextrin (HPBCD) or polyethylene glycol 200:ethanol:water (70:10:20 v/v/v). The dose was administered via cephalic or saphenous vein. The P.O. dose was prepared in 10% polysorbate 80 (Tween 80) and was administered via gavage.
Blood samples were serially collected following dose administration for up to 48 hr and plasma was separated by centrifugation. The concentrations of prodrugs in dog plasma were determined by a LC-MS/MS assay following a protein precipitation step and addition of an appropriate internal standard (labetalol, imipramine or diclofenac). Quantification was done by determining peak area-ratios of the prodrugs and tenofovir to the internal standard. Additional blood sample(s) was collected following dose administration for up to 24 hr. […] The concentrations of tenofovir and/or its phosphate conjugate(s) in PBMCs were determined by an LC-MS/MS assay following a protein precipitation step and addition of an appropriate internal standard (labetalol, imipramine or diclofenac). Quantification was done by determining peak area-ratios of tenofovir and/or its phosphate conjugate(s) to the internal standard.
Pharmacokinetic parameters were obtained using non-compartmental methods (Watson®). The area under the plasma concentration-time curve (AUC0-t) was calculated from the first time point (0 min) up to the last time point with measurable drug concentration using the linear trapezoidal or linear/log-linear trapezoidal rule. The IV plasma clearance was calculated by dividing the dose by AUC0-inf. The terminal half-life of elimination was determined by unweighted linear regression analysis of the log-transformed data. […] The volume of distribution at steady state (Vdss) was obtained from the product of plasma clearance and mean residence time (determined by dividing the area under the first moment curve by the area under the curve). […]

[3] = MT4-GFP cells infected with HIV-1, 10% normal human serum, read-out: Viking, IC50 (10% NHS)
[4] = MT4-GFP cells infected with HIV-1, 50% normal human serum, read-out: Viking, IC50 (50% NHS)

Compound	IC50 (HIV-1 (H9/IIB strain); [3]) [nM]	IC50 (HIV-1 (H9/IIB strain); [4]) [nM]	GI Tract stability (%) [1] [%]	In Vivo Dog PK (μM): TFV-DP concentrations in dog PBMCs [2] [µM]
CCCOC(=O)C(C)(C)NP(=O)(CO[C@H](C)Cn1cnc2c(N)ncnc21)N[C@@H](C)c1ccc(Cl)cc1 (stereo partly drawn) [Example 13A, propyl 2-(((R)-((((R)-1-(6-amino-9H-purin-9-yl)propan-2-yl)oxy)methyl)(((S)-1-(4-chlorophenyl)ethyl)amino)phosphoryl)ami-no)-2-methylpropanoate and propyl 2-(((S)-((((R)-1-(6-amino-9H-purin-9-yl)propan-2-yl)oxy)methyl)(((S)-1-(4-chlorophenyl)ethyl)amino)phosphoryl)ami-no)-2-methylpropanoate]	8.4	75	98.5	15.9
propyl 2-(((R)-((((R)-1-(6-amino-9H-purin- 9-yl)propan-2-yl)oxy)methyl)((4- isopropylbenzyl)amino)phosphoryl)amino)- 2-methylpropanoate and propyl 2-(((S)-((((R)-1-(6-amino-9H-purin- 9-yl)propan-2-yl)oxy)methyl)((4- isopropylbenzyl)amino)phosphoryl)amino)- 2-methylpropanoate [Example 5A]	3.1	17	96.3	7.7
CCCOC(=O)C(C)(C)N[P@@](=O)(CO[C@H](C)Cn1cnc2c(N)ncnc21)N[C@H](C)c1ccc(Cl)cc1C [Example 29B, propyl 2-(((R)-((((R)-1-(6-amino-9H-purin-9-yl)propan-2-yl)oxy)methyl)(((R)-1-(4-chloro-2-methylphenyl)ethyl)amino)phosphoryl)ami-no)-2-methylpropanoate and propyl 2-(((S)-((((R)-1-(6-amino-9H-purin-9-yl)propan-2-yl)oxy)methyl)(((R)-1-(4-chloro-2-methyphenyl)ethyl)amino)phosphoryl)ami-no)-2-methylpropanoate]	2.5	21	12.1	–
CCCOC(=O)C(C)(C)NP(=O)(CO[C@H](C)Cn1cnc2c(N)ncnc21)N[C@H](C)c1ccc(C#N)cc1 (stereo partly drawn) [Example 31B, propyl 2-(((R)-((((R)-1-(6-amino-9H-purin-9-yl)propan-2-yl)oxy)methyl)(((R)-1-(4-cyanophenyl)ethyl)amino)phosphoryl)ami-no)-2-methylpropanoate and propyl 2-(((S)-((((R)-1-(6-amino-9H-purin-9-yl)propan-2-yl)oxy)methyl)(((R)-1-(4-cyanophenyl)ethyl)amino)phosphoryl)ami-no)-2-methylpropanoate]	8.8	110	90.6	–
CCCOC(=O)C(C)(C)N[P@@](=O)(CO[C@H](C)Cn1cnc2c(N)ncnc21)N[C@H](c1ccc(OC(F)(F)F)cc1)C(F)(F)F (single isomer, unassigned) [Example 27A]	1.4	6.7	79.5	0.8
CCCOC(=O)C(C)(C)NP(=O)(CO[C@H](C)Cn1cnc2c(N)ncnc21)N[C@@H](C)c1ccc(OC(F)(F)F)cc1 (stereo partly drawn) [Example 19A, propyl 2-(((R)-((((R)-1-(6-amino-9H-purin-9-yl)propan-2-yl)oxy)methyl)(((S)-1-(4-(trifluoromethoxy)phenyl)ethyl)amino)phos-phoryl)amino)-2-methylpropanoate and propyl 2-(((S)-((((R)-1-(6-amino-9H-purin-9-yl)propan-2-yl)oxy)methyl)(((S)-1-(4-(trifluoromethoxy)phenyl)ethyl)amino)phos-phoryl)amino)-2-methylpropanoate]	2.7	12	98.1	–
